Results from US11382956B2, “Amylin analogues” (Zealand Pharma A/S, priority 2016, dated 2022).
Numbered stars: 1 amine (or outer) side, 2 acyl side, 3 side chain; on linkers, the order of the positions; unused ones are H or OH. Bridge positions count the residues as written; N and C are the ends. Square brackets hold non-standard residues; d marks the D form. Peptide text beside a SMILES is read from it. * marks the point of attachment. C20 diacid = O=C(O)CCCCCCCCCCCCCCCCCCC(=O)*; γGlu = O=C(O)[C@H](CCC(=O)[*:2])N[*:1]; Hyp = O=C(O)[C@@H]1C[C@@H](O)CN1; NMeI = CC[C@H](C)[C@H](NC)C(=O)O; Aad = N[C@@H](CCCC(=O)O)C(=O)O; Orn = NCCC[C@H](N)C(=O)O; Sar = CNCC(=O)O

What was measured:
[1] = target: T1, recombinant human calcitonin receptor (hCT-R) (Homo sapiens, UniProt P30988); test: hCT-R cAMP assay (AlphaScreen) in 1321N1 cells; type: cell-based; details: cAMP formation, 45 min stimulation
T1 construct: host or cells: human astrocytoma cell line 1321N1
T1 sequence (P30988 25-474): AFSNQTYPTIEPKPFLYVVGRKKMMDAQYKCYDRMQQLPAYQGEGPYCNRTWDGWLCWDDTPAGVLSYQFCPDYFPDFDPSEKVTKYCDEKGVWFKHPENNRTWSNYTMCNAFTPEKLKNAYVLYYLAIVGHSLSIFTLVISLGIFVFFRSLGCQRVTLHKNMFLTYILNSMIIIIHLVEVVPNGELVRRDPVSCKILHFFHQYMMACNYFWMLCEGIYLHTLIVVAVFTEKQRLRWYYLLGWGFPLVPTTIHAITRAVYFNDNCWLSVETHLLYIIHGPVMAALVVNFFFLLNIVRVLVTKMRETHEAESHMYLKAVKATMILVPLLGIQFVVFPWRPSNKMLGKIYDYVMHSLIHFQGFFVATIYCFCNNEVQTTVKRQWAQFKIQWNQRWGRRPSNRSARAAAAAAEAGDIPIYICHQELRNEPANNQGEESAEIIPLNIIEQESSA
From the text: (§1) For the assessment of the in vitro activity of test peptides, cell lines expressing recombinant human calcitonin receptor (hCT-R) or recombinant human amylin 3 receptor (hAMYR3) in the background of the human astrocytoma cell line 1321N1 were purchased from DiscoveRx Corporation (Cat. No. 95-016106 and 95-0166C6). The hAMYR3 is a hetero-oligomer of the calcitonin receptor (Isoform 2; Gene ID 799) and RAMPS (Gene ID 10268) that forms when both genes are expressed in the same cell. The hCT-R cell line expresses only the recombinant human calcitonin receptor gene (Isoform 2; Gene ID 799). Upon activation of hCT-R or hAMYR3 by the test peptides the formation of cAMP is induced and was measured using the AlphaScreen® cAMP Assay kit from Perkin-Elmer (Cat. No. 6760635R).
(§2) Briefly, 1321N1 cells expressing hCT-R or hAMYR3 were seeded in 384-well microtiter plates (Falcon Optilux White, Cat.-No. 10448642) at 5,000 cells in […] growth medium per well (AssayComplete 1321N1 Cell Culture Kit, DiscoveRx Corp.), and incubated for 24 h at 37° C., 5% CO2. On the day of analysis growth medium was removed and the cells were stimulated by adding 10 μL of stimulation buffer (10 […], 0.1% BSA) containing increasing concentrations of test peptides, and incubation for 45 min at room temperature. The stimulation was stopped by adding 5.6 μL/well donor bead detection mix (5 mM Hepes pH7.4, 0.5% TWEEN 20, 0.1% BSA, 0.05 mg/mL donor beads, 62.5 nM biotinylated cAMP) and 4.5 μL/well acceptor bead solution (5 mM Hepes pH7.4, 0.5% TWEEN 20, 0.1% BSA, 0.05 mg/mL acceptor beads). After thorough mixing the plates were incubated in the dark for 1 h at room temperature and the cAMP content of the resulting cell lysates was estimated according to the AlphaScreen® cAMP Assay manufacturer's instructions. EC50 values were estimated by computer-aided curve fitting of results of at least 7 different compound concentrations.

[2] = target: T2, recombinant human amylin 3 receptor (hAMYR3) (Homo sapiens, UniProt O60896+P30988); test: hAMYR3 cAMP assay (AlphaScreen) in 1321N1 cells; type: cell-based; details: cAMP formation, 45 min stimulation
T2 construct: host or cells: human astrocytoma cell line 1321N1
T2 sequence (P30988 25-474): T1 sequence (P30988 25-474)
T2 sequence (O60896 24-148 partner): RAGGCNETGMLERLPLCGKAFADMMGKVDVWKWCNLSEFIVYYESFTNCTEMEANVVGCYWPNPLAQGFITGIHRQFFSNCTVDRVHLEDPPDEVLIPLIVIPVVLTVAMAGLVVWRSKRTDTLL
From the text: as §1, §2

Row | Structure (SMILES) | EC50 [1] | EC50 [2]
1 | CC[C@H](C)[C@@H](C(=O)N[C@@H](CC(C)C)C(=O)N[C@@H](CO)C(=O)N[C@@H](CO)C(=O)N[C@H](C(=O)N[C@@H](CCC(=O)O)C(=O)N[C@H](C(=O)NCC(=O)N[C@@H](CO)C(=O)N[C@@H](CC(N)=O)C(=O)N[C@H](C(=O)N1CCC[C@H]1C(N)=O)[C@@H](C)O)C(C)C)[C@@H](C)O)N(C)C(=O)[C@H](C)NC(=O)CN(C)C(=O)[C@H](Cc1ccccc1)NC(=O)[C@H](CO)NC(=O)[C@H](CO)NC(=O)[C@H](CCCNC(=N)N)NC(=O)[C@H](Cc1c[nH]cn1)NC(=O)[C@H](CC(C)C)NC(=O)[C@H](Cc1ccccc1)NC(=O)[C@H](Cc1c[nH]cn1)NC(=O)[C@H](C)NC(=O)[C@H](CC(C)C)NC(=O)[C@H](CCCNC(=N)N)NC(=O)[C@H](CCC(=O)O)NC(=O)[C@@H](NC(=O)[C@H](C)NC(=O)[C@@H]1CCCNC(=O)C[C@H](NC(=O)[C@H](CCCNC(=N)N)NC(=O)CC[C@H](NC(=O)CCCCCCCCCCCCCCCCCCC(=O)O)C(=O)O)C(=O)NCC(=O)N[C@@H]([C@@H](C)O)C(=O)N[C@@H](C)C(=O)N[C@@H]([C@@H](C)O)C(=O)N1)[C@@H](C)O [Compound 7, [19CD]-isoGlu-RD()GTAT-Orn()-ATERLAHFLHRSSF-Gly(Me)-A-Ile(Me)-LSSTEVGSNTP-NH2] ({C20 diacid-γGlu}-RDGTAT[Orn]ATERLAHFLHRSSF[Sar]A[NMeI]LSSTEVGSNTP-NH2; lactam 2-7) | 0.289 nM | 0.032 nM
2 | CC[C@H](C)[C@@H](C(=O)N1CCC[C@H]1C(=O)N[C@@H](CO)C(=O)N[C@@H](CO)C(=O)N[C@H](C(=O)N[C@@H](CCC(=O)O)C(=O)N[C@H](C(=O)NCC(=O)N[C@@H](CO)C(=O)N[C@@H](CC(N)=O)C(=O)N[C@H](C(=O)N1C[C@H](O)C[C@H]1C(N)=O)[C@@H](C)O)C(C)C)[C@@H](C)O)N(C)C(=O)[C@H](C)NC(=O)CN(C)C(=O)[C@H](Cc1ccccc1)NC(=O)[C@H](CO)NC(=O)[C@H](CO)NC(=O)[C@H](CCCNC(=N)N)NC(=O)[C@H](CCC(N)=O)NC(=O)[C@H](CC(C)C)NC(=O)[C@H](Cc1ccccc1)NC(=O)[C@H](Cc1c[nH]cn1)NC(=O)[C@H](C)NC(=O)[C@H](CC(C)C)NC(=O)[C@H](CCCNC(=N)N)NC(=O)[C@H](CCC(N)=O)NC(=O)[C@@H](NC(=O)[C@H](C)NC(=O)[C@@H]1CCCNC(=O)C[C@H](NC(=O)[C@H](CCCNC(=N)N)NC(=O)CC[C@H](NC(=O)CCCCCCCCCCCCCCCCCCC(=O)O)C(=O)O)C(=O)NCC(=O)N[C@@H]([C@@H](C)O)C(=O)N[C@@H](C)C(=O)N[C@@H]([C@@H](C)O)C(=O)N1)[C@@H](C)O [Compound 9, [19CD]-isoGlu-RD()GTAT-Orn()-ATQRLAHFLQRSSF-Gly(Me)-A-Ile(Me)-PSSTEVGSNT-Hyp-NH2] ({C20 diacid-γGlu}-RDGTAT[Orn]ATQRLAHFLQRSSF[Sar]A[NMeI]PSSTEVGSNT[Hyp]-NH2; lactam 2-7) | 0.027 nM | 0.013 nM
3 | CC[C@H](C)[C@@H](C(=O)N[C@@H](CC(C)C)C(=O)N[C@@H](CO)C(=O)N[C@@H](CO)C(=O)N[C@H](C(=O)N[C@@H](CCC(=O)O)C(=O)N[C@H](C(=O)NCC(=O)N[C@@H](CO)C(=O)N[C@@H](CC(N)=O)C(=O)N[C@H](C(=O)N1C[C@H](O)C[C@H]1C(N)=O)[C@@H](C)O)C(C)C)[C@@H](C)O)N(C)C(=O)[C@H](C)NC(=O)CN(C)C(=O)[C@H](Cc1ccccc1)NC(=O)[C@H](CO)NC(=O)[C@H](CO)NC(=O)[C@H](CCCNC(=N)N)NC(=O)[C@H](CCC(N)=O)NC(=O)[C@H](CC(C)C)NC(=O)[C@H](Cc1ccccc1)NC(=O)[C@H](Cc1c[nH]cn1)NC(=O)[C@H](C)NC(=O)[C@H](CC(C)C)NC(=O)[C@H](CCCNC(=N)N)NC(=O)[C@H](CCC(=O)O)NC(=O)[C@@H](NC(=O)[C@H](C)NC(=O)[C@@H]1CCCCNC(=O)C[C@H](NC(=O)[C@H](CCCNC(=N)N)NC(=O)CC[C@H](NC(=O)CCCCCCCCCCCCCCCCCCC(=O)O)C(=O)O)C(=O)NCC(=O)N[C@@H](CCC(=O)O)C(=O)N[C@@H](C)C(=O)N[C@@H]([C@@H](C)O)C(=O)N1)[C@@H](C)O [Compound 12, [19CD]-isoGlu-RD()GEATK()ATERLAHFLQRSSF-Gly(Me)-A-Ile(Me)-LSSTEVGSNT-Hyp-NH2] ({C20 diacid-γGlu}-RDGEATKATERLAHFLQRSSF[Sar]A[NMeI]LSSTEVGSNT[Hyp]-NH2; lactam 2-7) | 0.893 nM | 0.999 nM
4 | CC[C@H](C)[C@@H](C(=O)N[C@@H](CC(C)C)C(=O)N[C@@H](CO)C(=O)N[C@@H](CO)C(=O)N[C@H](C(=O)N[C@@H](CCC(=O)O)C(=O)N[C@H](C(=O)NCC(=O)N[C@@H](CO)C(=O)N[C@@H](CC(N)=O)C(=O)N[C@H](C(=O)N1C[C@H](O)C[C@H]1C(N)=O)[C@@H](C)O)C(C)C)[C@@H](C)O)N(C)C(=O)[C@H](C)NC(=O)CN(C)C(=O)[C@H](Cc1ccccc1)NC(=O)[C@H](CO)NC(=O)[C@H](CO)NC(=O)[C@H](CCCNC(=N)N)NC(=O)[C@H](CCC(N)=O)NC(=O)[C@H](CC(C)C)NC(=O)[C@H](Cc1ccccc1)NC(=O)[C@H](Cc1c[nH]cn1)NC(=O)[C@H](C)NC(=O)[C@H](CC(C)C)NC(=O)[C@H](CCCNC(=N)N)NC(=O)[C@H](CCC(=O)O)NC(=O)[C@@H](NC(=O)[C@H](C)NC(=O)[C@@H]1CCCCNC(=O)C[C@H](NC(=O)[C@H](CCCNC(=N)N)NC(=O)CC[C@H](NC(=O)CCCCCCCCCCCCCCCCCCC(=O)O)C(=O)O)C(=O)NCC(=O)N[C@@H]([C@@H](C)O)C(=O)N[C@@H](CC(C)C)C(=O)N[C@@H]([C@@H](C)O)C(=O)N1)[C@@H](C)O [Compound 13, [19CD]-isoGlu-RD()GTLTK()ATERLAHFLQRSSF-Gly(Me)-A-Ile(Me)-LSSTEVGSNT-Hyp-NH2] ({C20 diacid-γGlu}-RDGTLTKATERLAHFLQRSSF[Sar]A[NMeI]LSSTEVGSNT[Hyp]-NH2; lactam 2-7) | 1.41 nM | 0.456 nM
5 | CC[C@H](C)[C@@H](C(=O)N[C@@H](CC(C)C)C(=O)N[C@@H](CO)C(=O)N[C@@H](CO)C(=O)N[C@H](C(=O)N[C@@H](CCC(=O)O)C(=O)N[C@H](C(=O)NCC(=O)N[C@@H](CO)C(=O)N[C@@H](CO)C(=O)N[C@H](C(=O)N1C[C@H](O)C[C@H]1C(N)=O)[C@@H](C)O)C(C)C)[C@@H](C)O)N(C)C(=O)[C@H](C)NC(=O)CN(C)C(=O)[C@H](Cc1ccccc1)NC(=O)[C@H](CO)NC(=O)[C@H](CO)NC(=O)[C@H](CCCNC(=N)N)NC(=O)[C@@H](NC(=O)[C@H](CC(C)C)NC(=O)[C@H](Cc1ccccc1)NC(=O)[C@H](CCCC(=O)O)NC(=O)[C@H](C)NC(=O)[C@H](CC(C)C)NC(=O)[C@H](CCCNC(=N)N)NC(=O)[C@H](CCC(=O)O)NC(=O)[C@@H](NC(=O)[C@H](C)NC(=O)[C@@H]1CCCNC(=O)C[C@H](NC(=O)[C@H](CCCNC(=N)N)NC(=O)CC[C@H](NC(=O)CCCCCCCCCCCCCCCCCCC(=O)O)C(=O)O)C(=O)NCC(=O)N[C@@H]([C@@H](C)O)C(=O)N[C@@H](C)C(=O)N[C@@H]([C@@H](C)O)C(=O)N1)[C@@H](C)O)[C@@H](C)O [Compound 22, [19CD]-isoGlu-RD()GTAT-Orn()-ATERLA-Aad-FLTRSSF-Gly(Me)-A-Ile(Me)-LSSTEVGSST-Hyp-NH2] ({C20 diacid-γGlu}-RDGTAT[Orn]ATERLA[Aad]FLTRSSF[Sar]A[NMeI]LSSTEVGSST[Hyp]-NH2; lactam 2-7) | 0.474 nM | 0.051 nM
